Assays:
[1] = biological target: T1, c-Kit (Homo sapiens, UniProt P10721); test: Kinase inhibition assay; type: biochemical; settings: 10 μM ATP; 5-dose IC50 mode
T1 construct: purchased Reaction Biology Corporation
Description: (§1) Kinase assays were performed at Reaction Biology Corporation. To a freshly prepared buffer solution was added the target kinase at a concentration of […]. The contents were mixed gently, and then compound 8h dissolved in DMSO was added to the reaction mixture in the appropriate concentration. The mixture was incubated at room temperature for 30 min. prior to addition of ATP to initiate the reaction. Compound 8h was tested in a 5-dose IC50 mode with 10-fold serial dilutions starting at 10 μM. For each of the kinases, a control compound in a 10-dose IC50 mode with 3-fold serial dilutions starting at 20 μM. The control compounds were GW5074 (3-(3,5-dibromo-4-hydroxy-benzylidene)-5-iodo-1,3-dihydro-indol-2-one) for BRAF, CK2a and RAF1, D4476 (4-[4-(2,3-dihydro-1,4-benzodioxin-6-yl)-5-(2-pyridinyl)-1H-imidazol-2-yl]benzamide) for CK1d; Wee1 inhibitor (4-(2-chlorophenyl)-9-hydroxypyrrolo[3,4-c]carbazole-1,3-(2H,6H)-dione) for WEE1 and saturosporine for other kinases. Reaction was carried out at 10 μM ATP concentration.

[2] = biological target: T2, RET (Homo sapiens, UniProt P07949); test: Kinase inhibition assay; type: biochemical; settings: 10 μM ATP; 5-dose IC50 mode
T2 construct: purchased Reaction Biology Corporation
T2 sequence (P07949 29-1114): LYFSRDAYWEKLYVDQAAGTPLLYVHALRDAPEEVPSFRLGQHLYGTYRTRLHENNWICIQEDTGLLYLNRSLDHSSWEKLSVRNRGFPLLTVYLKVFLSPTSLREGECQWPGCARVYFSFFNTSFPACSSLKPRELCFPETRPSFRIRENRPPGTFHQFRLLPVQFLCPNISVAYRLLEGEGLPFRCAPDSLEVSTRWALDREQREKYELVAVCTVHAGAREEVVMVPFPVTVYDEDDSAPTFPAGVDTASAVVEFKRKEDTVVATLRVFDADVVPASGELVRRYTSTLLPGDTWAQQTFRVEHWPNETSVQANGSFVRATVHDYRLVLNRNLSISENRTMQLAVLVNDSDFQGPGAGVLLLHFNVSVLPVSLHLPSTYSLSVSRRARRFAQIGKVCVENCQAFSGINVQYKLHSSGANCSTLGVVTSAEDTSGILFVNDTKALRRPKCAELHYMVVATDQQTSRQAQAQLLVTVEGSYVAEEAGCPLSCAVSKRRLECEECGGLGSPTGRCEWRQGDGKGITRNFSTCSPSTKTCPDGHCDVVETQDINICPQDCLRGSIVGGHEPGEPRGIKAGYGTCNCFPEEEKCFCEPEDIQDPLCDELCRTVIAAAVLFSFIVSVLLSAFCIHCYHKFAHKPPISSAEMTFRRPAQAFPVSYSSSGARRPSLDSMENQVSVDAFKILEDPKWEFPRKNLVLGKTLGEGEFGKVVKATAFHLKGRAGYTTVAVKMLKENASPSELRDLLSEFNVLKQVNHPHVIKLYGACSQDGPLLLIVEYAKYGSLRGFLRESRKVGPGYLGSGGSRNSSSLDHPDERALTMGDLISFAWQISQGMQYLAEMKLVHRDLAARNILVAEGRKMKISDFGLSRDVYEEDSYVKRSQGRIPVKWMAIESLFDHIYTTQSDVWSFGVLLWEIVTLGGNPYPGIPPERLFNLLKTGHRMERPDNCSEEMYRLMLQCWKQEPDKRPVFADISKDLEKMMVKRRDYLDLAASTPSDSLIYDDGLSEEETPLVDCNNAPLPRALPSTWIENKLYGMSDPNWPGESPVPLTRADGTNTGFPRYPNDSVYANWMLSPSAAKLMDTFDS
Description: as §1

[3] = biological target: T3, CDK6/cyclin D1 (Homo sapiens, UniProt Q00534); test: Kinase inhibition assay; type: biochemical; settings: 10 μM ATP; 5-dose IC50 mode
T3 construct: purchased Reaction Biology Corporation
Description: as §1

[4] = biological target: T4, PLK1 (Homo sapiens, UniProt P53350); test: Kinase inhibition assay; type: biochemical; settings: 10 μM ATP; 5-dose IC50 mode
T4 construct: purchased Reaction Biology Corporation
T4 sequence (P53350 whole entry): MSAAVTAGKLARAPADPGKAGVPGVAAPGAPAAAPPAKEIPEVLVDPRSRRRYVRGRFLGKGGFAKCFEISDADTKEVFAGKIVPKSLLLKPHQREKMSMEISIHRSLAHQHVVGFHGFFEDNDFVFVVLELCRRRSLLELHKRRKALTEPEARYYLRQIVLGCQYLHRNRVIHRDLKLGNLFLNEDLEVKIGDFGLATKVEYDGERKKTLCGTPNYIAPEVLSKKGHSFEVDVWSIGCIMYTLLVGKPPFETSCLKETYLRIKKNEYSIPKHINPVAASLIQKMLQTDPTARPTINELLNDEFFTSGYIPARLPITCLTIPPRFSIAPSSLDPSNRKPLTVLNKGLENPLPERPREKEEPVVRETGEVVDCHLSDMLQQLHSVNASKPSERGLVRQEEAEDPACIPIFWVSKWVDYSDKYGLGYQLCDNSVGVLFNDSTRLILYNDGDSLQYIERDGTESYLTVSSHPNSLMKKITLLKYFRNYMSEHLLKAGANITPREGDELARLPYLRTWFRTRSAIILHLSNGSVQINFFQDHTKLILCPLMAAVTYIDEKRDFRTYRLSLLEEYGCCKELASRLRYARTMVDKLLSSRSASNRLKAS
Description: as §1

[5] = biological target: T5, CK2a2 (Homo sapiens, UniProt P19784); test: Kinase inhibition assay; type: biochemical; settings: 10 μM ATP; 5-dose IC50 mode
T5 construct: purchased Reaction Biology Corporation
T5 sequence (P19784 whole entry): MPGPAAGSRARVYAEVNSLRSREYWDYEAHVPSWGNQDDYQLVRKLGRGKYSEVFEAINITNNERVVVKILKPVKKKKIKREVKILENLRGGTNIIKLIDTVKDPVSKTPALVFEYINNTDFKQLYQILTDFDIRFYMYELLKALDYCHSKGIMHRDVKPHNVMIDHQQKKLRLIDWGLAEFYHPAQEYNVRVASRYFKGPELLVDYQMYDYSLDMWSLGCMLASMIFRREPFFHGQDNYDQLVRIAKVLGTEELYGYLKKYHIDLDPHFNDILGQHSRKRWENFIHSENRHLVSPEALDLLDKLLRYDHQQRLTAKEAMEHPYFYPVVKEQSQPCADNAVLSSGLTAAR
Description: as §1

[6] = biological target: T6, MEK1 (Homo sapiens, UniProt Q02750); test: Kinase inhibition assay; type: biochemical; settings: 10 μM ATP; 5-dose IC50 mode
T6 construct: purchased Reaction Biology Corporation
T6 sequence (Q02750 whole entry): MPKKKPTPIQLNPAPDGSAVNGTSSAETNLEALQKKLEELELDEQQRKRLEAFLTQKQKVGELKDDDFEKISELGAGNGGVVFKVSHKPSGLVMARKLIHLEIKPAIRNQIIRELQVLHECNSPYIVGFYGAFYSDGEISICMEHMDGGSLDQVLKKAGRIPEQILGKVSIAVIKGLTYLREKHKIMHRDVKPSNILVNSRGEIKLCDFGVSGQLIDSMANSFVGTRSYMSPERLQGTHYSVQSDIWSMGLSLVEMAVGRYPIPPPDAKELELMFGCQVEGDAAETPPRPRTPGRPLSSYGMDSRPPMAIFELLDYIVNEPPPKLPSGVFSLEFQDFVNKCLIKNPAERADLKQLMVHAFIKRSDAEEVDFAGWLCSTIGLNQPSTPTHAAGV
Description: as §1

[7] = biological target: T7, CDK5/p35 (Homo sapiens, UniProt Q00535); test: Kinase inhibition assay; type: biochemical; settings: 10 μM ATP; 5-dose IC50 mode
T7 construct: purchased Reaction Biology Corporation
Description: as §1

[8] = biological target: T8, CHK2 (Homo sapiens, UniProt O96017); test: Kinase inhibition assay; type: biochemical; settings: 10 μM ATP; 5-dose IC50 mode
T8 construct: purchased Reaction Biology Corporation
T8 sequence (O96017 whole entry): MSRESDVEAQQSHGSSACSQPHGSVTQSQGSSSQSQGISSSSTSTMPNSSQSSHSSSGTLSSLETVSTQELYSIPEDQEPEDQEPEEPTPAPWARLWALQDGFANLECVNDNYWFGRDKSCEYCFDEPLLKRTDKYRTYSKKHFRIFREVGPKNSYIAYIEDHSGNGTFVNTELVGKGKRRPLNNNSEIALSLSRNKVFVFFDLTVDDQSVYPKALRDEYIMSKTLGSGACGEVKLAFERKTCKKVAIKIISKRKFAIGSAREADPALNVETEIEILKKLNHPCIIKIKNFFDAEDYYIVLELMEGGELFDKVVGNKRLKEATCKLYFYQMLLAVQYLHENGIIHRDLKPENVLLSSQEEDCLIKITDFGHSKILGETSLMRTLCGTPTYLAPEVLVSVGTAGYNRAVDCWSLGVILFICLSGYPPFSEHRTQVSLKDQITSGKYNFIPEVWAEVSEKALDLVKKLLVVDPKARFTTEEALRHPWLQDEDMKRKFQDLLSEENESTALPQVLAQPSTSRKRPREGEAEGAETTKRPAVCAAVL
Description: as §1

[9] = biological target: T9, PIM1 (Homo sapiens, UniProt P11309); test: Kinase inhibition assay; type: biochemical; settings: 10 μM ATP; 5-dose IC50 mode
T9 construct: purchased Reaction Biology Corporation
T9 sequence (P11309 whole entry): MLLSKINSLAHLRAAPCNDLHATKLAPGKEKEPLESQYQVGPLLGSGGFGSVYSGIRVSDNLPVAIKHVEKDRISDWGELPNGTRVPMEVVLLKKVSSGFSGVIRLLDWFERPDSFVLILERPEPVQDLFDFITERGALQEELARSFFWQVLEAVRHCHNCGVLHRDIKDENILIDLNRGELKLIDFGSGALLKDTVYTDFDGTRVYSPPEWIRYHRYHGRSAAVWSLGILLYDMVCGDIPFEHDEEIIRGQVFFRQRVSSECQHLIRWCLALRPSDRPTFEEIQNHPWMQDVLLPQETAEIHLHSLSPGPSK
Description: as §1

[10] = biological target: T10, JAK1 (Homo sapiens, UniProt P23458); test: Kinase inhibition assay; type: biochemical; settings: 10 μM ATP; 5-dose IC50 mode
T10 construct: purchased Reaction Biology Corporation
T10 sequence (P23458 whole entry): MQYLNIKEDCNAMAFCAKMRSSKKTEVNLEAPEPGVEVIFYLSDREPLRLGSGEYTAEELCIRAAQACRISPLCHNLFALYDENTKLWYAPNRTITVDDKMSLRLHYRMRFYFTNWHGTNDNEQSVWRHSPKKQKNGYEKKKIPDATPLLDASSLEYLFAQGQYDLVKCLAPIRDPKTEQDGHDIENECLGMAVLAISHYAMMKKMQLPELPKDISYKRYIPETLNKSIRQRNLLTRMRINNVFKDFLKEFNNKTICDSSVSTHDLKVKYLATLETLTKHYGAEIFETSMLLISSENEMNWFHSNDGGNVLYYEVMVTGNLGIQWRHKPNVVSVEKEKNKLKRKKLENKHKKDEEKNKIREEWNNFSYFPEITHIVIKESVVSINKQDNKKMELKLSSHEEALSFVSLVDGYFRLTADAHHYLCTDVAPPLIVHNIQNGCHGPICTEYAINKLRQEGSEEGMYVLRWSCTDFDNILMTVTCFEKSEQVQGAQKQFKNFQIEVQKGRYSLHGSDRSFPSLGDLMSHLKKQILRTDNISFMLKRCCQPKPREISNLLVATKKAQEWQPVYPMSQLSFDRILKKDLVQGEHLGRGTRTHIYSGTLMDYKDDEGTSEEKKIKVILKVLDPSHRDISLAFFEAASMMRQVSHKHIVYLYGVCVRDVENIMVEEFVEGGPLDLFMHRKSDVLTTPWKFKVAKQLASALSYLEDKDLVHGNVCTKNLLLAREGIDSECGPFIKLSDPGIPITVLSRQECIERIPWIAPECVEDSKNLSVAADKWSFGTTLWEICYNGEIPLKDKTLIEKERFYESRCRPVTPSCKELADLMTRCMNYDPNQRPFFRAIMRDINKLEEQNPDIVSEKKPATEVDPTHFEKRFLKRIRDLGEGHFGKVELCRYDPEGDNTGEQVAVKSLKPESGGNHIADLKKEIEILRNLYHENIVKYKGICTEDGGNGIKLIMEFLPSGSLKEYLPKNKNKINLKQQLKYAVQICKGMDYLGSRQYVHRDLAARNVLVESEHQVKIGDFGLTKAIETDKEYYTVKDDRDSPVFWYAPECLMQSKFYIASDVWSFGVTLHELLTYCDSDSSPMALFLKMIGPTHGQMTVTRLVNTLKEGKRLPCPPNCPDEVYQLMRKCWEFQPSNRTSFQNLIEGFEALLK
Description: as §1

[11] = biological target: T11, Aurora C (Homo sapiens, UniProt Q9UQB9); test: Kinase inhibition assay; type: biochemical; settings: 10 μM ATP; 5-dose IC50 mode
T11 construct: purchased Reaction Biology Corporation
T11 sequence (Q9UQB9 whole entry): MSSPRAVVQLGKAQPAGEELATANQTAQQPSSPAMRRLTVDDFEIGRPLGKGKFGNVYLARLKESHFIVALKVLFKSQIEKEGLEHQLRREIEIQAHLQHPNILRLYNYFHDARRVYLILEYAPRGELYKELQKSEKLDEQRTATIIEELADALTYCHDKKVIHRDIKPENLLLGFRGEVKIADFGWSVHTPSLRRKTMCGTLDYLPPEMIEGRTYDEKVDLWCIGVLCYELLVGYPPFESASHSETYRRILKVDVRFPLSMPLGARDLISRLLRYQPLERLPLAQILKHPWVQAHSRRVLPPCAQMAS
Description: as §1

[12] = biological target: T12, PIM2 (Homo sapiens, UniProt Q9P1W9); test: Kinase inhibition assay; type: biochemical; settings: 10 μM ATP; 5-dose IC50 mode
T12 construct: purchased Reaction Biology Corporation
Description: as §1

[13] = biological target: T13, ABL1 (Homo sapiens, UniProt P00519); test: Kinase inhibition assay; type: biochemical; settings: 10 μM ATP; 5-dose IC50 mode
T13 construct: purchased Reaction Biology Corporation
Description: as §1

[14] = biological target: T14, FLT3 (Homo sapiens, UniProt P36888); test: Kinase inhibition assay; type: biochemical; settings: 10 μM ATP; 5-dose IC50 mode
T14 construct: purchased Reaction Biology Corporation
Description: as §1

[15] = test system: SU.86.86; test: Cytotoxicity assay, dose response end point; type: cell-based; settings: Homo sapiens; SU.86.86, pancreatic ductal carcinoma; 96 h
Description: (§2) The following tumor cell lines were tested using a dose response end point assay system with compound (8h). The cells were grown in either DMEM or RPMI supplemented with 10% fetal bovine serum and 1 unit/mL Penicillin-Streptomycin solution. The tumor cells were plated into 6-well dishes at a cell density of 1.0×10^5 cells/mL/well and the test compound was added 24 h. later at various concentrations. Cell counts were determined from duplicate wells after 96 h. of treatment. The total number of viable cells was determined by trypan blue exclusion.

[16] = test system: Z138C; test: Cytotoxicity assay, dose response end point; type: cell-based; settings: mantle cell lymphoma, 96 h
Description: as §2

[17] = test system: DU145; test: Cytotoxicity assay, dose response end point; type: cell-based; settings: Homo sapiens, DU-145; DU145, prostate carcinoma; 96 h
Description: as §2

[18] = test system: MOLT-4; test: Cytotoxicity assay, dose response end point; type: cell-based; settings: Homo sapiens; MOLT-4, acute lymphoblastic leukemia; 96 h
Description: as §2

[19] = test system: Nalmalwa; test: Cytotoxicity assay, dose response end point; type: cell-based; settings: Burkitt's lymphoma, 96 h
Description: as §2

[20] = test system: BXPC-3; test: Cytotoxicity assay, dose response end point; type: cell-based; settings: Homo sapiens; BXPC-3, pancreatic adenocarcinoma; 96 h
Description: as §2

[21] = test system: HPAF-II; test: Cytotoxicity assay, dose response end point; type: cell-based; settings: Homo sapiens, pancreatic adenocarcinoma, 96 h
Description: as §2

[22] = test system: ASPC-1; test: Cytotoxicity assay, dose response end point; type: cell-based; settings: Homo sapiens, ASPC1; ASPC-1, pancreatic adenocarcinoma; 96 h
Description: as §2

[23] = test system: CAPAN-1; test: Cytotoxicity assay, dose response end point; type: cell-based; settings: Homo sapiens; CAPAN-1, pancreatic ductal adenocarcinoma; 96 h
Description: as §2

[24] = test system: CEM/C2; test: Cytotoxicity assay, dose response end point; type: cell-based; settings: Homo sapiens; CEM/C2, T-cell leukemia; 96 h
Description: as §2

[25] = test system: U266; test: Cytotoxicity assay, dose response end point; type: cell-based; settings: Homo sapiens, U-266; U266, multiple myeloma; 96 h
Description: as §2

[26] = test system: HL-60; test: Cytotoxicity assay, dose response end point; type: cell-based; settings: Homo sapiens; HL-60, promyelocytic leukaemia; 96 h
Description: as §2

[27] = test system: HCT-15; test: Cytotoxicity assay, dose response end point; type: cell-based; settings: Homo sapiens; HCT-15, Dukes' type C colorectal adenocarcinoma; 96 h
Description: as §2

[28] = test system: RAJI; test: Cytotoxicity assay, dose response end point; type: cell-based; settings: Homo sapiens, Burkitt's lymphoma, 96 h
Description: as §2

[29] = test system: HL-60/MX2; test: Cytotoxicity assay, dose response end point; type: cell-based; settings: Homo sapiens, HL60/MX2; HL-60/MX2, promyelocytic leukaemia; 96 h
Description: as §2

[30] = test system: DAUDI; test: Cytotoxicity assay, dose response end point; type: cell-based; settings: Homo sapiens, Burkitt's lymphoma, 96 h
Description: as §2

[31] = test system: CEM; test: Cytotoxicity assay, dose response end point; type: cell-based; settings: Homo sapiens, CCRF-CEM, T-cell leukemia, 96 h
Description: as §2

[32] = test system: K562; test: Cytotoxicity assay, dose response end point; type: cell-based; settings: Homo sapiens; K562, chronic myelogenous leukemia; 96 h
Description: as §2

[33] = test system: MIA-PaCa-2; test: Cytotoxicity assay, dose response end point; type: cell-based; settings: Homo sapiens; MIA-PaCa-2, pancreatic carcinoma; 96 h
Description: as §2

## CN1CCN(c2ccc(Nc3ncc(/C=C/C#N)c(NC4CCCC4)n3)cc2)CC1 [Compound 8h, 3-{4-Cyclopentylamino-2-[4-(4-methylpiperazin-1-yl)phenylamino]pyrimidin-5-yl}acrylonitrile]
[1]
  IC50: 100 to 1000 nM
[2]
  IC50: < 100 nM
[3]
  IC50: 100 to 1000 nM
[4]
  IC50: 100 to 1000 nM
[5]
  IC50: 100 to 1000 nM
[6]
  IC50: > 1000 nM
[7]
  IC50: > 10000 nM
[8]
  IC50: 100 to 1000 nM
[9]
  IC50: > 1000 nM
[10]
  IC50: 100 to 1000 nM
[11]
  IC50: > 1000 nM
[12]
  IC50: > 1000 nM
[13]
  IC50: < 100 nM
[14]
  IC50: < 100 nM
[15]
  GI50: 5000 nM
[16]
  GI50: 3000 nM
[17]
  GI50: < 500 nM
[18]
  GI50: 100 nM
[19]
  GI50: 200 nM
[20]
  GI50: 100 nM
[21]
  GI50: 5000 nM
[22]
  GI50: > 5000 nM
[23]
  GI50: 100 nM
[24]
  GI50: 1500 nM
[25]
  GI50: 1000 nM
[26]
  GI50: 500 nM
[27]
  GI50: 30 nM
[28]
  GI50: < 20 nM
[29]
  GI50: 250 nM
[30]
  GI50: 100 nM
[31]
  GI50: 1500 nM
[32]
  GI50: 40 nM
[33]
  GI50: > 5000 nM
